The text below walks through data of patent US8466107B2, “Fibrin-binding peptides and conjugates thereof” (Bracco Imaging SpA, priority 2006, dated 2013).

The assay has as its target DDE (fibrin-derived polypeptide) (Homo sapiens, UniProt P02671+P02675+P02679). The assay is described as follows: Direct binding fluorescence polarization (FP) assay using 5-carboxyfluorescein labeled peptides. The following applies: 20 nM CF5-labeled peptide, serial dilutions of DDE, anisotropy read at 485 nm; read-out: KD (μM) Direct Binding (n = 2). Here is the method:
Assay of Fibrin Binding Peptides by Direct Binding Fluorescence Polarization (FP) Procedure using 5-Carboxyfluoresein Labeled Peptides
Protocol • 1. Prepare 1 mL of 40 nM solution of 5-carboxyfluorescein-labeled peptide in HEPES dilution buffer (HDB) with 0.01% Tween. • HDB (10 mM HEPES, 150 mM […], 2 mM CaCl2) • 2. Dilute the 40 nM solution to obtain 1 ml of a 20 nM solution of the test 5-carboxyfluorescein-labeled peptide. • 3. Prepare a solution of DDE at a concentration that will be approximately 5-10 fold greater than the expected KD. For the described assay an 8 μM concentration of DDE was prepared. • 4. Mix equal volumes of the DDE solution with the 40 nM peptide solution. • 5. Prepare serial dilutions of DDE in a solution consisting of the binding buffer with 0.01% Tween20 and 20 nM of the 5-carboxyfluorescein-labeled peptide. • 6. Make dilutions as shown in the following table in a Labsystems 384-well microplate and mix by repeated aspiration and dispensing of the solution into the wells. • 7. Centrifuge the plate at 2000 RPM for 5 minutes to remove air pockets in the wells. • 8. Read in Tecan Polarion Plate Reader at 485 nm to obtain the anisotropy value.
The anisotropy (in mP—millipolarization units) vs the logarithm of the concentration (micromoles/liter) of the receptor concentration is graphed. The dissociation constant is obtained at the midpoint of the curve whose extrema are Afree and Abound where Afree is the anisotropy of the free peptide and Abound is the anisotropy of the fully bound peptide. The theory, methods of operation and mathematical analysis is described in, for example, the following reference: Fluorescence Polarization Technical Resource Guide Technical Resource Guide 4th Edn. Invitrogen Corporation•501 Charmany Drive•Madison, Wis. 53719 USA. Particularly, the mathematical analysis of the data and obtaining binding constants is described in Chapter 8: Analysis of FP Binding Data pp 8-2-8-7.

By Kd is commonly meant a measure of binding affinity in units of concentration.

Bridge positions count the residues as written; N and C are the ends. Square brackets hold non-standard residues; d marks the D form. Peptide text beside a SMILES is read from it. * marks the point of attachment. 5FAM = O=C1OC2(c3ccc(O)cc3Oc3cc(O)ccc32)c2ccc(C(=O)*)cc21; Phe(3,4-F2) = N[C@@H](Cc1ccc(F)c(F)c1)C(=O)O; Cha = N[C@@H](CC1CCCCC1)C(=O)O

Chain of DDE (fibrin-derived polypeptide) (P02671 124-216): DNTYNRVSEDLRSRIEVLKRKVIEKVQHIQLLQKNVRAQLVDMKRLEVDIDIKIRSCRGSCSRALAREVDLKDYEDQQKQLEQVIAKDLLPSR
Chain of DDE (fibrin-derived polypeptide) (P02675 164-491): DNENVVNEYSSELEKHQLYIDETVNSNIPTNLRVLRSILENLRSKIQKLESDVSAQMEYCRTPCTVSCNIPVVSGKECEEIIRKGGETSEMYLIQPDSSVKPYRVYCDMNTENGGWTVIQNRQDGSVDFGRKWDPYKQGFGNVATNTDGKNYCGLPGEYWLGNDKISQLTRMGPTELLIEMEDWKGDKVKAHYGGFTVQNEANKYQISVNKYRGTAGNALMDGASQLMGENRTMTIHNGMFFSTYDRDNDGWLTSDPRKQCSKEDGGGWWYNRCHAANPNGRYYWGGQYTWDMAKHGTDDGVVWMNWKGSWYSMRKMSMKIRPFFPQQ
Chain of DDE (fibrin-derived polypeptide) (P02679 114-432): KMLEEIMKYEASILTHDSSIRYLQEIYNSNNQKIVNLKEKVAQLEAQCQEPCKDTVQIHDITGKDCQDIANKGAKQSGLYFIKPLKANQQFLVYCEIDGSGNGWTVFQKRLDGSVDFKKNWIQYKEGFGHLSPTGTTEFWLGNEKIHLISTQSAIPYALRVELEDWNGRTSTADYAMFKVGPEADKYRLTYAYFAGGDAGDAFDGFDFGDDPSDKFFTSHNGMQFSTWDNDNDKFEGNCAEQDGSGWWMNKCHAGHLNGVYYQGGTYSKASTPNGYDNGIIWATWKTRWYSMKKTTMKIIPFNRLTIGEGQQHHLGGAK
Chain of DDE (fibrin-derived polypeptide) (P02671 36-97): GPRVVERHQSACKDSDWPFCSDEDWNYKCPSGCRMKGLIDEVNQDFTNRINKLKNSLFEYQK
Chain of DDE (fibrin-derived polypeptide) (P02675 45-152): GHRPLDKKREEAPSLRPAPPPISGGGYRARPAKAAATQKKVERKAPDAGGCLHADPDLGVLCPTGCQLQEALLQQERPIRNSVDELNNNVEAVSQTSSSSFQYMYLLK
Chain of DDE (fibrin-derived polypeptide) (P02679 27-88): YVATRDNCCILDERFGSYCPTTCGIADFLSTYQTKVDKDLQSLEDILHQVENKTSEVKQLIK

For `CC(=O)N[C@@H](CCCNC(=N)N)C(=O)N[C@@H](Cc1c[nH]c2ccccc12)C(=O)N[C@@H](CCC(N)=O)C(=O)N1CCC[C@H]1C(=O)N[C@H]1CSSC[C@@H](C(=O)N[C@@H](Cc2c[nH]c3ccccc23)C(=O)N[C@@H](CC(=O)O)C(=O)N2CCC[C@H]2C(=O)NCC(=O)NCC(=O)NCC(=O)N[C@@H](CCCCNC(=O)c2ccc3c(c2)C(=O)OC32c3ccc(O)cc3Oc3cc(O)ccc32)C(N)=O)NC(=O)[C@H](Cc2ccccc2)NC(=O)[C@H]([C@@H](C)O)NC(=O)[C@H](Cc2c[nH]c3ccccc23)NC(=O)[C@H](CO)NC(=O)[C@H](CCC(=O)O)NC(=O)[C@H](Cc2c[nH]c3ccccc23)NC(=O)[C@@H]2CCCN2C1=O` [Seq048-CF5] (Ac-RWQPCPWESWTFCWDPGGGK(5FAM)-NH2; disulfide 5-13), the Kd turned out to be 0.11 µM. With `CC(=O)N[C@@H](CCCNC(=N)N)C(=O)N[C@@H](Cc1c[nH]c2ccccc12)C(=O)N[C@@H](CCC(N)=O)C(=O)N1CCC[C@H]1C(=O)N[C@H]1CSSC[C@@H](C(=O)N[C@@H](Cc2c[nH]c3ccccc23)C(=O)N[C@@H](CC(=O)O)C(=O)N2CCC[C@H]2C(=O)NCC(=O)NCC(=O)NCC(=O)N[C@@H](CCCCNC(=O)c2ccc3c(c2)C(=O)OC32c3ccc(O)cc3Oc3cc(O)ccc32)C(N)=O)NC(=O)[C@H](CC2CCCCC2)NC(=O)[C@H]([C@@H](C)O)NC(=O)[C@H](Cc2c[nH]c3ccccc23)NC(=O)[C@H](CO)NC(=O)[C@H](CCC(=O)O)NC(=O)[C@H](C)NC(=O)[C@@H]2CCCN2C1=O` [Seq050-CF5, Ac-RWQPC*PAESWT-Cha-C*WDPGGGK(CF5)-NH2] (Ac-RWQPCPAESWT[Cha]CWDPGGGK(5FAM)-NH2; disulfide 5-13), the Kd stood at 0.08 µM. The value for `CC(=O)NCC(=O)N[C@@H](Cc1c[nH]c2ccccc12)C(=O)N[C@@H](CCC(N)=O)C(=O)N1CCC[C@H]1C(=O)N[C@H]1CSSC[C@@H](C(=O)N[C@@H](Cc2c[nH]c3ccccc23)C(=O)N[C@@H](CC(=O)O)C(=O)N2CCC[C@H]2C(=O)NCC(=O)NCC(=O)NCC(=O)N[C@@H](CCCCNC(=O)c2ccc3c(c2)C(=O)OC32c3ccc(O)cc3Oc3cc(O)ccc32)C(N)=O)NC(=O)[C@H](Cc2ccccc2)NC(=O)[C@H]([C@@H](C)O)NC(=O)[C@H](Cc2c[nH]c3ccccc23)NC(=O)[C@H](CO)NC(=O)[C@H](CCC(=O)O)NC(=O)[C@H](C)NC(=O)[C@@H]2CCCN2C1=O` [Seq039-CF5] (Ac-GWQPCPAESWTFCWDPGGGK(5FAM)-NH2; disulfide 5-13) was 0.24 µM; that for `CC(=O)N[C@@H](Cc1c[nH]c2ccccc12)C(=O)N[C@@H](CCC(N)=O)C(=O)N1CCC[C@H]1C(=O)N[C@H]1CSSC[C@@H](C(=O)N[C@@H](Cc2c[nH]c3ccccc23)C(=O)N[C@@H](CC(=O)O)C(=O)N2CCC[C@H]2C(=O)NCC(=O)NCC(=O)NCC(=O)N[C@@H](CCCCNC(=O)c2ccc3c(c2)C(=O)OC32c3ccc(O)cc3Oc3cc(O)ccc32)C(N)=O)NC(=O)[C@H](CC2CCCCC2)NC(=O)[C@H]([C@@H](C)O)NC(=O)[C@H](Cc2c[nH]c3ccccc23)NC(=O)[C@H](CO)NC(=O)[C@H](CCC(=O)O)NC(=O)[C@H](C)NC(=O)[C@@H]2CCCN2C1=O` [Seq042-CF5, Ac-WQPC*PAESWT-Cha-C*WDPGGGK(CF5)-NH2] (Ac-WQPCPAESWT[Cha]CWDPGGGK(5FAM)-NH2; disulfide 4-12) was 0.17 µM. The value for `CC(=O)N[C@@H](Cc1c[nH]c2ccccc12)C(=O)N[C@@H](CCC(N)=O)C(=O)N1CCC[C@H]1C(=O)N[C@H]1CSSC[C@@H](C(=O)N[C@@H](Cc2c[nH]c3ccccc23)C(=O)N[C@@H](CC(=O)O)C(=O)N2CCC[C@H]2C(=O)NCC(=O)NCC(=O)NCC(=O)N[C@@H](CCCCNC(=O)c2ccc3c(c2)C(=O)OC32c3ccc(O)cc3Oc3cc(O)ccc32)C(N)=O)NC(=O)[C@H](Cc2ccc(F)c(F)c2)NC(=O)[C@H]([C@@H](C)O)NC(=O)[C@H](Cc2c[nH]c3ccccc23)NC(=O)[C@H](CO)NC(=O)[C@H](CCC(=O)O)NC(=O)[C@H](Cc2c[nH]c3ccccc23)NC(=O)[C@@H]2CCCN2C1=O` [Seq020-CF5, Ac-WQPC*PWESWT-F34fe-C*WDPGGGK(CF5)-NH2] (Ac-WQPCPWESWT[Phe(3,4-F2)]CWDPGGGK(5FAM)-NH2; disulfide 4-12) was 0.7 µM.
